Structures can show the parent of a compound that is named as a salt. Blank lines part the entries; values can stand above or below the compound they belong to.
Assays:
Format in all cases: physicochemical
[1] = Salt screening: solubility by HPLC according to KP, USP and EP general chapters; conditions: water, Example 1B salts
Method: For each Example 1B salt, a mixture of 40 mL (20 v/w) of a suitable solvent and 2 g Formula (I) free base was formed with agitation at room temperature. The indicated acid (2.2 eq.) was added to the mixture and salt formation was monitored by visual check. The resulting solid bis-acid salt was stirred for 24 hr at room temperature then filtered, and washed with a suitable solvent.
The water content, solubility in water (mg/mL), appearance, salt yield (%) and PXRD results for each of the salts of Example 1B are summarized in Table 4 where “MsOH” refers to methane sulfonic acid; “BsOH” refers to benzenesulfonic acid; “OW” refers to off-white; “W” refers to white; “Cryst” refers to crystalline; and “Amorph” refers to amorphous. Solubility was measured by HPLC according to KP, USP and EP general chapters.

[2] = Hygroscopicity / water content at 25° C. and 75% RH; conditions: for Water Content (%): salt as prepared, before humidity exposure; for water content after hygroscopicity test: 25° C. and 75% RH
Method: Various salt forms of Formula (I) were prepared from Formula (I) free base and characterized by water solubility, PXRD, DSC, DVS and hygroscopicity.

[3] = Stress stability test at 60° C.; conditions: for physicochemical stability (summary in words): up to 4 weeks
Method: In order to compare physicochemical stability among the crystalline form prepared in Example 3 (crystalline Formula (I) bis-hydrochloride Form I) and 16 (Formula (I) crystalline free base), and the amorphous form prepared in Comparative Example 1, a stress stability test was conducted by storing samples at 60° C., for different periods of time up to 4 weeks.

[4] = Water content of Form VI after humidity exposure (conversion to Form I)
Method: Crystalline Form VI was converted to Form I by two methods. In a first method, Form VI was exposed to a relative humidity of 60% at 25° C. In a second method, Form VI was exposed to a relative humidity of 20% at 21° C.

pH of aqueous solution = conditions: room temperature, Form I
Method: Aqueous solution pH was measured by preparing 0.01%, 0.1% and 1% aqueous solutions of Formula (I) bis-hydrochloride and then shaking the solution for 30 minutes at room temperature followed by filtration. The pH of the filtered aqueous solution was measured with a S2K713 Pocket pH meter (ISFETCOM, Japan) according to the method of the Korean Pharmacopoeia.

[5] = Hygroscopicity by dynamic vapor sorption (DVS); conditions: 25°, Form I
Method: Dynamic vapor sorption (DVS) analysis was performed in a DVS advantage (Surface measurement system, United Kingdom) analyzer at 25° C. with a relative humidity of 0% to 90%. A sample in an amount of 10 mg was placed into a wire-mesh vapor sorption balance pan and then attached to a DVS advantage dynamic vapor sorption balance via surface measurement systems. […] Upon completion of the sorption cycle, the sample was dried using the same process while maintaining a relative humidity of 0%. The changes in the sample weight during the adsorption/desorption cycle (repeated 3 times) were recorded and the hygroscopicity of the sample was measured. DVS isotherm diagrams are presented in FIGS. 1, 3, 6, 10, 13, 16 and 19 where Target PP (%) refers to relative humidity, “SORP” refers to adsorption and “DESORP” refers to desorption.
Hygroscopicity was measured by DVS where the DVS curve for Formula (I) bis-hydrochloride was recorded in a DVS Advantage I analyzer (SMS, United Kingdom). The DVS was operated over 3 cycles for measurement of the surface adsorption effects of water, from 0% RH to 90% RH at 25°.

[6] = Partition / distribution coefficient octanol-water (Sirius T3); conditions: for distributed ratio in octanol phase to water phase: ratio to 1
Method: The partition coefficient, Log P, was measured with a T3 (Sirius Analytical Instrument Ltd., UK). About 1 mg of Formula (I) bis-hydrochloride was added to a 15 mL GLpKa beaker, dissolved with octanol/150 mM KCl, adjusted to pH 1.8 with 0.5 N HCl, and titrated up to pH 12.2 with 0.5 N KOH. The partition coefficient of the octanol-water system was determined by correcting the difference between titration curves of the blank from the titration curve, by inserting the value of the dissociation constant measured previously.

[7] = Solubility of bis-hydrochloride Form I by HPLC test and observation test
Method: Solubility was measured by HPLC according to KP, USP and EP general chapters. […] The results of solubility were same between HPLC test and observation test.

[8] = Dissociation constant (pKa), GLpKa method, Sirius T3; conditions: as an aqueous solution, calculated by extrapolation
Method: Based on these pKa values, Formula (I) is believed to be weakly basic compound.
The dissociation, pKa, was measured with a T3 (Sirius Analytical Instrument Ltd., UK). About 1 mg of Formula (I) bis-hydrochloride was transferred to a GLpKa beaker, dissolved with 43% to 53% MDM solution (ISA Water/MeOH/ACN/p-Dioxane=40/20/20/20, Sirius), adjusted to pH 1.8 with 0.5 N HCl, and titrated up to pH 12.2 with 0.5 N KOH. The pKa as an aqueous solution was calculated by extrapolation.

[9] = Water solubility of Formula (I) free base
Method: Formula (I) free base is poorly soluble in water with a solubility of less than 0.4 μg/mL. Salt forms of free base compounds may result in improved water solubility.

H2O Solubility [1]: 30 µg/mL | Water Content (%) [2]: 0.9%
Structure (SMILES): Cc1ccc2c(Nc3cccc(Cl)c3F)nccc2c1NC(=O)c1csc2c(N)ncnc12 [BsOH, 4-amino-N-(1-((3-chloro-2-fluorophenyl)amino)-6-methylisoquinolin-5-yl)thieno[3,2-d]pyrimidine-7-carboxamide]

Purity(%) (A % by HPLC) ([3]; 2 weeks): 99.5% | Total impurities(%) (A % by HPLC) ([3]; 2 weeks): 0.485% | Purity(%) (A % by HPLC) ([3]; 4 weeks): 99.3% | Total impurities(%) (A % by HPLC) ([3]; 4 weeks): 0.68% | Purity(%) (A % by HPLC) ([3]; 1 day): 99.7% | Total impurities(%) (A % by HPLC) ([3]; 1 day): 0.30% | Purity(%) (A % by HPLC) ([3]; 3 days): 99.7% | Total impurities(%) (A % by HPLC) ([3]; 3 days): 0.31% | Purity(%) (A % by HPLC) ([3]; 7 days): 99.6% | Total impurities(%) (A % by HPLC) ([3]; 7 days): 0.38% | Purity(%) (A % by HPLC) ([3]; Initial): 99.7% | Total impurities(%) (A % by HPLC) ([3]; Initial): 0.32% | physicochemical stability (summary in words) ([3]; listed as amorphous form): change of purity after 7 days
Structure (SMILES): Cc1ccc2c(Nc3cccc(Cl)c3F)nccc2c1NC(=O)c1csc2c(N)ncnc12 [Comparative Example 1, 4-amino-N-(1-((3-chloro-2-fluorophenyl)amino)-6-methylisoquinolin-5-yl)thieno[3,2-d]pyrimidine-7-carboxamide]

Purity(%) (A % by HPLC) ([3]; 2 weeks): 99.7% | Total impurities(%) (A % by HPLC) ([3]; 2 weeks): 0.29% | Purity(%) (A % by HPLC) ([3]; 7 days): 99.7% | Total impurities(%) (A % by HPLC) ([3]; 7 days): 0.29% | Purity(%) (A % by HPLC) ([3]; Initial): 99.7% | Total impurities(%) (A % by HPLC) ([3]; Initial): 0.29%
Structure (SMILES): Cc1ccc2c(Nc3cccc(Cl)c3F)nccc2c1NC(=O)c1csc2c(N)ncnc12 [Example 16, 4-amino-N-(1-((3-chloro-2-fluorophenyl)amino)-6-methylisoquinolin-5-yl)thieno[3,2-d]pyrimidine-7-carboxamide]
physicochemical stability (summary in words) ([3]; listed as crystalline form of the free base): remarkably superior stability over the amorphous form

water content ([4]; after exposure at 21° C. and 20% RH for 3 hours): 8.0% | water content ([4]; after exposure at 21° C. and 20% RH for 6 hours): 10.4% | water content ([4]; after exposure at 21° C. and 20% RH for 5 days): 10.1% | water content ([4]; after exposure at 25° C. and 60% RH): 11.3%
Structure (SMILES): Cc1ccc2c(Nc3cccc(Cl)c3F)nccc2c1NC(=O)c1csc2c(N)ncnc12 [Form VI, 4-amino-N-(1-((3-chloro-2-fluorophenyl)amino)-6-methylisoquinolin-5-yl)thieno[3,2-d]pyrimidine-7-carboxamide]

H2O Solubility ([1]; listed as HCl): 120 µg/mL | water content after hygroscopicity test [2]: 11.7% | Water Content (%) [2]: 6.2% | Water Content (%) ([2]; listed as HCl): 6.2% | pH of aqueous solution (pH of aqueous solution; 0.1 mg/mL (0.01%) solution): 3.9 | pH of aqueous solution (pH of aqueous solution; 1 mg/mL (0.1%) solution): 2.6 | pH of aqueous solution (pH of aqueous solution; 10 mg/mL (1%) solution): 1.8 | water absorption (DVS) ([5]; from 0% RH to 20% RH): about 9.4% | water absorption (DVS) ([5]; from 0% RH to 90% RH): about 14.1% | water desorption (DVS) ([5]; from 10% RH to ~0% RH): about 8.9% | water absorption (DVS), increased to ([5]; from 20% RH to 90% RH): 14.1% | water desorption (DVS) ([5]; from 90% RH to 10% RH): about 5.2% | distributed ratio in octanol phase to water phase ([6]; neutral state at pH 11 or higher): about 20,000 | logP ([6]; octanol/water (octanol/150 mM KCl), neutral state at pH 11 or higher): 4.33 | logD ([6]; octanol/water, pH 7.4): 5.24 | distributed ratio in octanol phase to water phase ([6]; pH 7.4): about 200,000 | Solubility Observation ([7]; ACN): practically in soluble | Solubility Observation ([7]; DMSO): freely soluble | Solubility Observation ([7]; Dichloromethane): practically in soluble | Solubility Observation ([7]; Ethanol): very slightly soluble | Solubility Observation ([7]; Ethyl acetate): practically in soluble | Solubility Observation ([7]; Ethyl ether): practically in soluble | Solubility Observation ([7]; Methanol): sparingly soluble | Solubility Observation ([7]; Water): practically insoluble | Solubility Observation ([7]; buffer over pH 3.0): practically insoluble | Solubility Observation ([7]; n-Hexane): practically in soluble | Solubility Observation ([7]; pH 1.2 buffer): very slightly soluble | Solubility Observation ([7]; pH 2.0 buffer): very slightly soluble | pKa1 [8]: 3.86 | pKa2 [8]: 4.73 | pKa3 [8]: 10.30 | pKa3 ([8]; listed as Formula (I) bis-hydrochloride): 10.30
Structure (SMILES): Cc1ccc2c(Nc3cccc(Cl)c3F)nccc2c1NC(=O)c1csc2c(N)ncnc12 [Formula (I) bis-hydrochloride salt, 4-amino-N-(1-((3-chloro-2-fluorophenyl)amino)-6-methylisoquinolin-5-yl)thieno[3,2-d]pyrimidine-7-carboxamide]

H2O Solubility ([1]; listed as H2SO4): 160 µg/mL | water content after hygroscopicity test [2]: 17.1% | Water Content (%) [2]: 2.6% | Water Content (%) ([2]; listed as H2SO4): 2.6%
Structure (SMILES): Cc1ccc2c(Nc3cccc(Cl)c3F)nccc2c1NC(=O)c1csc2c(N)ncnc12 [Formula (I) bis-hydrogensulfate salt, 4-amino-N-(1-((3-chloro-2-fluorophenyl)amino)-6-methylisoquinolin-5-yl)thieno[3,2-d]pyrimidine-7-carboxamide]

solubility [9]: < 0.4 µg/mL
Structure (SMILES): Cc1ccc2c(Nc3cccc(Cl)c3F)nccc2c1NC(=O)c1csc2c(N)ncnc12 [Formula (I) free base, 4-amino-N-(1-((3-chloro-2-fluorophenyl)amino)-6-methylisoquinolin-5-yl)thieno[3,2-d]pyrimidine-7-carboxamide]

H2O Solubility [1]: 50 µg/mL | Water Content (%) [2]: 2.9%
Structure (SMILES): Cc1ccc2c(Nc3cccc(Cl)c3F)nccc2c1NC(=O)c1csc2c(N)ncnc12 [HBr, 4-amino-N-(1-((3-chloro-2-fluorophenyl)amino)-6-methylisoquinolin-5-yl)thieno[3,2-d]pyrimidine-7-carboxamide]

H2O Solubility [1]: 50 µg/mL | Water Content (%) [2]: 2.1%
Structure (SMILES): Cc1ccc2c(Nc3cccc(Cl)c3F)nccc2c1NC(=O)c1csc2c(N)ncnc12 [MsOH, 4-amino-N-(1-((3-chloro-2-fluorophenyl)amino)-6-methylisoquinolin-5-yl)thieno[3,2-d]pyrimidine-7-carboxamide]

Source: patent publication US11649246B2, “Salts of 4-amino-N-(l-((3-chloro-2-fluorophenyl)amino)-6-methylisoquinolin-5-yl)thieno[3,2-D]pyrimidine-7-carboxamide, and crystalline forms thereof” (Hanmi Pharm. Co., Ltd., priority 2017, dated 2023)
